Here are results for one compound from article PMC7221699, “Synthesis and Cytotoxic Analysis of Novel Myrtenyl Grafted Pseudo-Peptides Revealed Potential Candidates for Anticancer Therapy” (Molecules, 2020).

SMILES strings stand for the structures. pEC50: −log10 of the molar value.

In general, pEC50 refers to the negative decadic logarithm of the EC50, by convention in mol/L.

In data set [1] the test system is human colon adenocarcinoma (HT-29) cells. As to the kind of experiment: Sulforhodamine B (SRB) cell cytotoxicity assay, HT-29 cells. It counts as cell-based. Conditions: HT29 cells. As to the method:
(§1) […] The cell lines were expanded, cultured, and maintained at 37 °C in a humid atmosphere with 5% CO2 in modified Dulbecco’s medium (Thermo Fisher Scientific, Waltham, MA, USA), with 10% FBS (Thermo Fisher Scientific, Waltham, MA, USA) and 100 U/mL of the antibiotic mixture penicillin/streptomycin (Thermo Fisher Scientific, Waltham, MA, USA).
(§2) We evaluated the cytotoxicity effects of novel Myrtenal hybrids against on cells by the sulforhodamine B (SRB) assay. Initially, the cells were seeded in 96-well microplates at a density of 2 × 10^4 cells/well. All compounds were initially dissolved in 100% of methanol and prediluted to reduce methanol concentration to 1% or lower in culture medium and added to the cells at different concentrations for 24 h. Then, cells were fixed by adding 10% (w/v) trichloroacetic acid (TCA) (Winkler) in each well and were stained with 0.057% (w/v) Sulforhodamine B (SRB) (Sigma-Aldrich) in 1% (v/v) acetic acid (Winkler). The bound dye was dissolved in 10 mM Tris base (Sigma-Aldrich), and the absorbance was determined at 510 nm using a multiplate reader (Synergy 2, Biotek Instruments). Percentage cell viability was determined using the formula: […]. The absorbance from the wells of the negative control (1% methanol in culture medium) was considered as the 100% viability. EC50 values were determined by regression analysis (R^2 > 0.95) of the corresponding dose response curves of percentage of cell viability and concentration of the compounds. Emax, the maximum effect of the drug at the highest tested concentration were determined using an online calculator (http://www.grcalculator.org/). Emax lies between 1 and 0; a value of 0 corresponds to a fully cytotoxic response.

Data set [2] has as its system human dermal fibroblast (HDF) cells. As to the kind of experiment: Sulforhodamine B (SRB) cell cytotoxicity assay, HDF non-cancer cells. The data set is classed as cell-based. To be noted: 60, 120 and 240 ng/mL, 24 h. As to the method:
as §1, §2

The test system of data set [3] is human breast adenocarcinoma (MCF-7) cells. As to the kind of experiment: Sulforhodamine B (SRB) cell cytotoxicity assay, MCF-7 cells. The data set is classed as cell-based. As to the method: as §1, §2
Data set [4] has as its system AGS, MCF-7 and HT-29 cells. As to the kind of experiment: SRB cytotoxicity assay, summary over the three cancer cell lines. It counts as cell-based. To be noted: Homo sapiens, MCF-7 and HT-29, 24 h, read-out: EC50 range over the cancer cell lines. The protocol:
as §1
as §2, with “All compounds were initially dissolved in 100% of methanol and prediluted to reduce methanol concentration to 1% or lower in culture medium and added to the cells at different concentrations for 24 h. Then, cells were fixed by adding 10% (w/v) trichloroacetic acid (TCA) (Winkler) in each well and were stained with 0.057% (w/v) Sulforhodamine B (SRB) (Sigma-Aldrich) in 1% (v/v) acetic acid (Winkler).” left out, “Emax lies between 1 and 0; a value of 0 corresponds to a fully cytotoxic response.” left out
(In general: Sulforhodamine B stains cellular protein and so reports cell mass.)

The test system of data set [5] is human gastric adenocarcinoma (AGS) cells. As to the kind of experiment: Sulforhodamine B (SRB) cell cytotoxicity assay, AGS cells. It counts as cell-based. The protocol:
as §1, §2

For the next data set, the system named is primary CD4+ T cells. As to the kind of experiment: Viability and cell count of activated CD4+ T lymphocytes per proliferation cycle (flow cytometry). The data set is classed as cell-based, human. Conditions: compounds added at EC25 48 h after activation, incubated four days. As to the method: CD4+ T cells were first stained with a cell tracer dye, a fluorescent reagent that diffuses into cells and binds covalently to intracellular amines, and then with a Live/Dead dye that permeates into cells with damaged membranes, while live cells remain unstained. In addition, counting beads were added into each sample to calculate the exact number of cells per cell cycle (Figure 4A). Then, in order to induce proliferation, fluorescent-labelled CD4+ T cells were activated with anti-CD3/CD28 beads, which mimic physiological T cell receptor triggering and co-stimulation in T lymphocytes. After activation, a proportion of cells proliferated, while some stayed in a non-proliferative state. […] Myrtenyl derivatives were added after the second day of culture to evaluate their effect on non-proliferating CD4+ T cells at cycle 0 and 1 and in proliferating cells in cycle 2, 3, and 4. Live CD4+ T cells activated in the presence of five Myrtenyl derivatives were counted and results were normalized with the control sample per cell cycle.
CD4+ T cells were obtained from peripheral blood from healthy volunteers. Blood samples were diluted 1:2 with PBS before adding 50 μL/mL of RosettSep Human CD4+ T cell enrichment cocktail (STEM CELL) for 20 min at room temperature. After incubation, samples were diluted again 1:4 with PBS and CD4+ T cells were obtained directly from the mononuclear fraction obtained after Ficoll–Hypaque density gradient centrifugation. CD4+ T cells were washed twice, counted, and resuspended in PBS. CD4+ T cells were then stained with 1 μM Cell Trace Violet Cell Proliferation Kit (Invitrogen, Thermo Fisher Scientific, Waltham, MA, USA) for 20 min at 37 °C, protected from light. Unbound dye was quenched by adding cold FCS for 5 min at 4 °C. CD4+ T cells were washed two times and resuspended in X–VIVO (Gibco) with IL–2 (50 U/mL, ProLeukin). Cells (2 × 10^5) were activated for 48 h with CD3/CD28 Dynabeads (Invitrogen) prior to adding the compounds. After 48 h, compounds were added (EC25) and incubated for four days. To analyze proliferation and viability, cells were stained with Live/Dead fixable far red dead cell staining kit (Invitrogen) for 30 min at 4 °C and counting beads were added before acquisition. Cells were acquired on an LSRFortessa X20 (BD) within 24 h. Data were analyzed using FlowJo (Tree Star, Inc., Ashland, OR, USA).
A general note: Flow cytometry measures light scatter and fluorescence of single cells or particles in a stream.

Setting [6] is: maximal drug effect on viability rate, 1 = no effect, 0 = fully cytotoxic.

As for `CC1(C)[C@H]2CC=C(Cn3cc(CN(CC(=O)NC4CCCCC4)C(=O)C4=CC[C@H]5C[C@@H]4C5(C)C)nn3)[C@@H]1C2` [3d, (1R,5S)-N-[2-(cyclohexylamino)-2-oxoethyl]-N-({1-[((1R,5S)-6,6-dimethylbicyclo[3.1.1]hept-2-en-2-yl)methyl]-1H-1,2,3-triazol-4-yl}methyl)-6,6-dimethylbicyclo[3.1.1]hept-2-ene-2-carboxamide], the Emax is 0.1 in data set [1] (setting [6]); 0.1 in data set [3] (setting [6]); 0.1 in data set [5] (AGS cells, maximal drug effect on viability rate, 1 = no effect, 0 = fully cytotoxic). The pEC50 in data set [1] (Homo sapiens, HT-29, 24 h of drug treatment, SRB assay) was 7.48; in data set [3] (Homo sapiens, MCF7, 24 h of drug treatment, SRB assay), 7.66; in data set [4] it was 7.48 to 7.66; in data set [5] (Homo sapiens, AGS cells, 24 h of drug treatment, SRB assay), 7.48. Besides, the “effect on HDF viability (preliminary screen)” value in data set [2] was “without affecting HDF viability”. Besides, the “cytotoxicity against AGS cells at the lowest concentration” value in data set [5] (60 ng/mL, 24 h) is recorded as “high cytotoxicity”. The “viability of non-proliferating CD4+ T cells at cycle 0” value in the data set on primary CD4+ T cells (cycle 0) is given as “did not reduced viability”. Also, the “viability of proliferating CD4+ T cells at cycle 4” value with primary CD4+ T cells (cycle 4) was “lowest capacity to reduce viability”.
